Data on 46 molecules can be found in US20160090556A1, “PRODUCTS COMPRISING MALODOR REDUCTION MATERIALS” (The Procter & Gamble Company, priority 2014, published 2016).

The data set can be described thus: Liquid dish neat product liquid-air partition coefficient. It counts as physicochemical. As to conditions: for Comment Code: Log of liquid dish neat product liquid-air partition coefficient: code letters K, L.
Where [1] appears, read: class code letter within Comment Code.

Each structure is given as a SMILES string. Read-outs that look alike come from different tables or passages of the source.

For `CC(O)C(C)Cc1ccccc1` (stereo not drawn) [Material 82], the “Log of liquid dish neat product liquid-air partition coefficient (Comment Code K/L)” value (“Log … (Comment Code K/L)” for short) under setting [1] was “K (Log of liquid dish neat product liquid-air partition coefficient greater than or equal to −7)”.
Regarding `C=CC(C)(C#N)Cc1ccccc1` (stereo not drawn) [Material 504], the “Comment Code: Log of liquid dish neat product liquid-air partition coefficient” value (shortened to “Comment Code: Log”) was “K (Log of liquid dish neat product liquid-air partition coefficient greater than or equal to −7)”.
As for `C=CC(C)(CCC=C(C)C)OC(=O)C(C)C` (stereo not drawn) [Material 149], the “Log … (Comment Code K/L)” value under setting [1] is “K (Log of liquid dish neat product liquid-air partition coefficient greater than or equal to −7)”.
On the same count and under the same terms, the result for `O=C1CCCCCCCCCCCCCC1` [Material 480] reads “K (Log of liquid dish neat product liquid-air partition coefficient greater than or equal to −7)”.
Turning to `C=C1CC[C@@H]2[C@H]([C@H]3[C@H]1CC[C@]3(C)O)C2(C)C` [Material 1035], the “Log … (Comment Code K/L)” value is “K (Log of liquid dish neat product liquid-air partition coefficient greater than or equal to −7)” and the “Comment Code: Log” value is recorded as “K (Log of liquid dish neat product liquid-air partition coefficient greater than or equal to −7)”.
`CC/C=C\C/C=C/CCO` [Material 1072]: the “Log … (Comment Code K/L)” value was “K (Log of liquid dish neat product liquid-air partition coefficient greater than or equal to −7)”.
On the same count and under the same terms, the result for `OCCOc1ccccc1` [Material 834] reads “K (Log of liquid dish neat product liquid-air partition coefficient greater than or equal to −7)”.
On to `CCCCCCCCCCCC(=O)OC(C)C` [Material 197], for which the “Log … (Comment Code K/L)” value under setting [1] is listed as “K (Log of liquid dish neat product liquid-air partition coefficient greater than or equal to −7)”.
In the case of `c1ccc(CCc2ccccc2)cc1` [Material 457], the “Log … (Comment Code K/L)” value under setting [1] is “K (Log of liquid dish neat product liquid-air partition coefficient greater than or equal to −7)”.
Still for that read-out and setting: the entry for `CCCC(=O)OC(C)(C)Cc1ccccc1` [Material 432] is “K (Log of liquid dish neat product liquid-air partition coefficient greater than or equal to −7)”.
For the molecule `CCC(=O)OC1CC2CCC1(C)C2(C)C` (stereo not drawn) [Material 228], the “Log … (Comment Code K/L)” value under setting [1] is on record as “K (Log of liquid dish neat product liquid-air partition coefficient greater than or equal to −7)”.
Regarding `C=CC(C)(CCC=C(C)C)OC(=O)CCC` (stereo not drawn) [Material 151], the “Comment Code: Log” value is reported as “K (Log of liquid dish neat product liquid-air partition coefficient greater than or equal to −7)”.
In the case of `COC1CC2CC1C1CC(C=O)CC21` (stereo not drawn) [Material 1026], the “Log … (Comment Code K/L)” value is recorded as “K (Log of liquid dish neat product liquid-air partition coefficient greater than or equal to −7)”.
As to `CC1=CCC(C=CC(C)C(C)O)C1(C)C` (stereo not drawn) [Material 416], under setting [1], the “Log … (Comment Code K/L)” value is recorded as “K (Log of liquid dish neat product liquid-air partition coefficient greater than or equal to −7)”.
Same read-out and setting: the result for `CC(CO)C1CCCCCCCCCCC1` (stereo not drawn) [Material 252] reads “K (Log of liquid dish neat product liquid-air partition coefficient greater than or equal to −7)”.
Turning to `C=C(C)C(=O)OCCc1ccccc1` [Material 971], the “Comment Code: Log” value is given as “K (Log of liquid dish neat product liquid-air partition coefficient greater than or equal to −7)”.
As to `CC(=O)OC(C)CC/C=C(\C)CCC=C(C)C` (stereo not drawn) [Material 890], the “Log … (Comment Code K/L)” value is “K (Log of liquid dish neat product liquid-air partition coefficient greater than or equal to −7)”.
As to `C=CCCCCCCCCCO` [Material 870], the “Log … (Comment Code K/L)” value is on record as “K (Log of liquid dish neat product liquid-air partition coefficient greater than or equal to −7)”.
Turning to `CC(C)(C)c1ccc(CC=O)cc1` [Material 994], the “Comment Code: Log” value is reported as “K (Log of liquid dish neat product liquid-air partition coefficient greater than or equal to −7)”.
As to `C[C@@H]1CC[C@H]2C(C)(C)[C@H]3C[C@@]12CC1OC(C)(C)OC13C` (stereo partly drawn) [Material 674], the “Log … (Comment Code K/L)” value is reported as “K (Log of liquid dish neat product liquid-air partition coefficient greater than or equal to −7)” and the “Comment Code: Log” value is “K (Log of liquid dish neat product liquid-air partition coefficient greater than or equal to −7)”.
In the case of `COC(OC)C(C)c1ccccc1` (stereo not drawn) [Material 256], the “Log … (Comment Code K/L)” value under setting [1] is recorded as “K (Log of liquid dish neat product liquid-air partition coefficient greater than or equal to −7)”.
In the case of `O=Cc1ccc2c(c1)OCO2` [Material 287], the “Comment Code: Log” value is on record as “K (Log of liquid dish neat product liquid-air partition coefficient greater than or equal to −7)”.
Consider `CC1=CCC(O)(C(C)C)CC1` (stereo not drawn) [Material 791], for which the “Log … (Comment Code K/L)” value was “K (Log of liquid dish neat product liquid-air partition coefficient greater than or equal to −7)”.
Turning to `C=C(C)C1CCC(C)C(OC(C)=O)C1` (stereo not drawn) [Material 444], under setting [1], the “Log … (Comment Code K/L)” value is “K (Log of liquid dish neat product liquid-air partition coefficient greater than or equal to −7)”.
For the molecule `OC1CCC2CCCCC2C1` (stereo not drawn) [Material 474], under setting [1], the “Log … (Comment Code K/L)” value is listed as “K (Log of liquid dish neat product liquid-air partition coefficient greater than or equal to −7)”.
With `CC=CC(=O)C1C(C)=CCCC1(C)C` (stereo not drawn) [Material 1074], the “Comment Code: Log” value is given as “K (Log of liquid dish neat product liquid-air partition coefficient greater than or equal to −7)”.
Same read-out and setting: the result for `CC1=C(C/C=C(\C)C=O)C(C)(C)CCC1` [Material 602] reads “K (Log of liquid dish neat product liquid-air partition coefficient greater than or equal to −7)”.
Turning to `COC1(OC)CCCCCCCCCCC1` [Material 10], the “Log … (Comment Code K/L)” value under setting [1] is recorded as “K (Log of liquid dish neat product liquid-air partition coefficient greater than or equal to −7)”.
`CC1CC(C)(C)OC(Cc2ccccc2)O1` (stereo not drawn) [Material 1003]: the “Log … (Comment Code K/L)” value is reported as “K (Log of liquid dish neat product liquid-air partition coefficient greater than or equal to −7)”.
Take `CCCCCCC(=O)OCc1ccco1` [Material 339]: under setting [1], the “Log … (Comment Code K/L)” value is given as “K (Log of liquid dish neat product liquid-air partition coefficient greater than or equal to −7)”.
Regarding `Cc1cc(O)cc(C)c1Cl` [Material 557], the “Comment Code: Log” value was “K (Log of liquid dish neat product liquid-air partition coefficient greater than or equal to −7)”.
With `COC(=O)C=Cc1ccccc1` [Material 117], the “Log … (Comment Code K/L)” value under setting [1] is listed as “K (Log of liquid dish neat product liquid-air partition coefficient greater than or equal to −7)”.
Regarding `CC(C)(O)CCC1CCCCC1` [Material 496], the “Comment Code: Log” value was “K (Log of liquid dish neat product liquid-air partition coefficient greater than or equal to −7)”.
Consider `C=CCc1ccc(O)c(OC)c1` [Material 375], for which the “Log … (Comment Code K/L)” value under setting [1] is listed as “K (Log of liquid dish neat product liquid-air partition coefficient greater than or equal to −7)”.
Still for that read-out and setting: the entry for `Cc1cccc(CC(C)(C)CO)c1` [Material 140] is “K (Log of liquid dish neat product liquid-air partition coefficient greater than or equal to −7)”.
Take `C=C(C)C1CCC2(C)CCC=C(C)C2C1` (stereo not drawn) [Material 692]: the “Log … (Comment Code K/L)” value is recorded as “K (Log of liquid dish neat product liquid-air partition coefficient greater than or equal to −7)”.
Take `c1ccc2c(c1)CC1COCOC21` (stereo not drawn) [Material 247]: the “Log … (Comment Code K/L)” value under setting [1] is “K (Log of liquid dish neat product liquid-air partition coefficient greater than or equal to −7)”.
As for `C=C(C)[C@@H]1CCC2=CC(=O)C[C@@H](C)[C@]2(C)C1` [Material 48], the “Comment Code: Log” value is listed as “K (Log of liquid dish neat product liquid-air partition coefficient greater than or equal to −7)”. The “Log … (Comment Code K/L)” value under setting [1] is “K (Log of liquid dish neat product liquid-air partition coefficient greater than or equal to −7)”.
As for `CCCCCC=CC=CC(=O)OCC` [Material 951], the “Log … (Comment Code K/L)” value is given as “K (Log of liquid dish neat product liquid-air partition coefficient greater than or equal to −7)”.
Turning to `CCCCCCCCCC(C)C(OC)OC` (stereo not drawn) [Material 101], under setting [1], the “Log … (Comment Code K/L)” value was “K (Log of liquid dish neat product liquid-air partition coefficient greater than or equal to −7)”.
On to `COC1CC2CC1C1CC(C=O)CC21` (stereo not drawn) [Material 1027], for which the “Log … (Comment Code K/L)” value is “K (Log of liquid dish neat product liquid-air partition coefficient greater than or equal to −7)” and the “Comment Code: Log” value is recorded as “K (Log of liquid dish neat product liquid-air partition coefficient greater than or equal to −7)”.
As for `CC(C)(C)c1ccc(CCC=O)cc1` [Material 601], the “Log … (Comment Code K/L)” value was “K (Log of liquid dish neat product liquid-air partition coefficient greater than or equal to −7)”.
On to `C/C=C/c1ccc(O)c(OC)c1` [Material 1084], for which the “Comment Code: Log” value is “K (Log of liquid dish neat product liquid-air partition coefficient greater than or equal to −7)”.
Take `CC1=CCCC2(C)CCC(C(C)(C)O)CC12` (stereo not drawn) [Material 712]: the “Log … (Comment Code K/L)” value is “K (Log of liquid dish neat product liquid-air partition coefficient greater than or equal to −7)” and the “Comment Code: Log” value was “K (Log of liquid dish neat product liquid-air partition coefficient greater than or equal to −7)”.
In the case of `CC/C=C\CCOC(=O)C/C=C\CC` [Material 534], the “Log … (Comment Code K/L)” value under setting [1] is recorded as “K (Log of liquid dish neat product liquid-air partition coefficient greater than or equal to −7)”.
The same measure, in the same setting: the entry for `C=CC(C)=CCCC(C)(C)O` [Material 42] is “K (Log of liquid dish neat product liquid-air partition coefficient greater than or equal to −7)”.
